Assay results from US12195461B2, “Pyrrolo-dipyridine compounds” (OssiFi Therapeutics LLC, priority 2018, dated 2025).

Key:
sclerostin = biological target: T1, sclerostin (Homo sapiens, UniProt Q9BQB4); assay: Modulation of sclerostin/Wnt activity: restoring Wnt3a signaling in the presence of sclerostin; type: cell-based; design: key to Sclerostin Inhibition Assay; improvement over sclerostin alone: − indicates no improvement over sclerostin protein alone; + indicates an IC100 >10 μM; ++ indicates an IC100 <10 μM; conditions: for Sclerostin Inhibition Assay; improvement over sclerostin alone: IC100 class, Wnt3a signaling in human embryonic cells in the presence of sclerostin
T1 construct: host or cells: human embryonic cells (assay cells)
T1 sequence (Q9BQB4 24-213): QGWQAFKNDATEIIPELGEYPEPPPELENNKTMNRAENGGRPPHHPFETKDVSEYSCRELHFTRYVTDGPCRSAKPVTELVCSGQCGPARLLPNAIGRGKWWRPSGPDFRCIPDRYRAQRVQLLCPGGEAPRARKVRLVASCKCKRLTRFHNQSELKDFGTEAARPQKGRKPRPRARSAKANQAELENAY
Protocol: Compounds synthesized in accordance with the methods of Examples 1-6 were assayed for their ability to restore Wnt signaling in the presence of sclerostin consistent with a known sclerostin antagonist, sclerostin Mab. See, Ellies et al., J Bone Miner Res 21:1738-1749 (2006). […] The addition of a known sclerostin antagonist inhibited sclerostin inhibition of Wnt3a signaling, thus restoring Wnt3a signaling in the cell (IC100 at 10 μM) (data not shown).

[1] = tested on: MC3T3-E1 (mouse calvarial) osteoblast cells; assay: Bone formation assay: rescue of sclerostin inhibition of mineralization (total calcium); type: cell-based; design: key to Sclerostin Inhibition of Mineralization; improvement over sclerostin alone: − indicates no improvement over sclerostin protein alone; + indicates an IC100 >10 μM; ++ indicates an IC100 <10 μM; conditions: for Sclerostin Inhibition of Mineralization; improvement over sclerostin alone: IC100 class, calcium concentration
Protocol: Mineralization (crystalline calcium phosphate formation) represents an in vitro model of bone formation. Using an assay in which the amount of mineralization is quantified by measuring total calcium after solubilization of deposited crystalline calcium phosphate, sclerostin was previously shown to inhibit mineralization in MC3T3-E1 (mouse calvarial) osteoblast cells. Li et al., J Bone Miner Res 24:578-588 (2008). Following the protocol described in Li et al., Compounds were assayed for their ability to rescue the inhibition of mineralization by sclerostin in MC3T3 osteoblast cells. […] Addition of a compound of Examples 1-6 neutralized sclerostin-mediated inhibition of mineralization, as reflected by the increase in calcium concentration.

[2] = Metabolic stability in pooled human liver microsomes; type: in vitro ADME; conditions: 0.1 μM compound, human liver microsomes 0.1 mg/mL, NADPH, 37° C., 60 minutes
Protocol: Compounds of the present invention (0.1 μM) were incubated with microsomes at 37° C. for a total of 60 minutes. The reaction contained pooled human liver microsomal protein (0.1 mg/mL) in potassium phosphate buffer with NADPH. At the indicated time points (0, 5, 15, 30 and 60 minutes). Samples were analyzed by LC/MS/MS and remaining parent drug was calculated using Microsoft Excel (2007). Obach R S, Drug Metab Dispos. 27(11):1350-1359 (1999).

| Compound | Sclerostin Inhibition Assay; improvement over sclerostin alone (sclerostin) | Metabolic Stability [2] | effect on Wnt3a signaling (in words) (sclerostin; human embryonic cells) | Sclerostin Inhibition of Mineralization; improvement over sclerostin alone [1] | effect on mineralization, as measured by calcium concentration (in words) [1] |
| --- | --- | --- | --- | --- | --- |
| Cl.FC(F)(F)c1nccc2c3ccncc3n(CCN3CCOCC3)c12 [Example 1, 4-(2-(1-(Trifluoromethyl)-9H-pyrrolo[2,3-c:5,4-c′]dipyridin-9-yl)ethyl)morpholine hydrochloride salt] | + (+ indicates an IC100 >10 μM) | ++ (++ indicates a stability >1x) |  | + (+ indicates an IC100 >10 μM) |  |
| Cl.[O-][n+]1ccc2c3ccnc(C(F)(F)F)c3n(CCN3CCOCC3)c2c1 [Example 2, 9-(2-Morpholinoethyl)-8-(trifluoromethyl)-9H-pyrrolo[2,3-c:5,4-c′]dipyridine 2-oxide hydrochloride salt] | − | ++ (++ indicates a stability >1x) |  | − |  |
| COc1ccc2c3ccnc(C(F)(F)F)c3n(CCN3CCOCC3)c2n1.Cl [Example 3, 4-(2-(2-Methoxy-8-(trifluoromethyl)-9H-pyrrolo[2,3-b:5,4-c′]dipyridin-9-yl)ethyl)morpholine hydrochloride salt] | ++ (++ indicates an IC100 <10 μM) | ++ (++ indicates a stability >1x) |  | ++ (++ indicates an IC100 <10 μM) |  |
| COc1cc2c(cn1)c1ccnc(C(F)(F)F)c1n2CCN1CCOCC1.Cl [Example 4, 4-(2-(3-Methoxy-6-(trifluoromethyl)-5H-pyrrolo[2,3-c:4,5-c′]dipyridin-5-yl)ethyl)morpholine hydrochloride salt] | ++ (++ indicates an IC100 <10 μM) | ++ (++ indicates a stability >1x) |  | ++ (++ indicates an IC100 <10 μM) |  |

Now from value to compound, other results behind:

| Sclerostin Inhibition Assay; improvement over sclerostin alone (sclerostin) | Metabolic Stability [2] | effect on Wnt3a signaling (in words) (sclerostin; human embryonic cells) | Compound | Sclerostin Inhibition of Mineralization; improvement over sclerostin alone [1] | effect on mineralization, as measured by calcium concentration (in words) [1] |
| --- | --- | --- | --- | --- | --- |
| ++ (++ indicates an IC100 <10 μM) | ++ (++ indicates a stability >1x) |  | COc1ncc2c3ccnc(C(F)(F)F)c3n(CCN3CCOCC3)c2n1 [Example 5, 4-(2-(2-Methoxy-8-(trifluoromethyl)-9H-pyrido[4′,3′:4,5]pyrrolo[2,3-d]pyrimidin-9-yl)ethyl)morpholine] | ++ (++ indicates an IC100 <10 μM) |  |
| ++ (++ indicates an IC100 <10 μM) | ++ (++ indicates a stability >1x) |  | COc1nc2c(cc1F)c1ccnc(C(F)(F)F)c1n2CCN1CCOCC1.Cl [Example 6, 4-(2-(3-Fluoro-2-methoxy-8-(trifluoromethyl)-9H-pyrrolo[2,3-b:5,4-c′]dipyridin-9-yl)ethyl)morpholine hydrochloride salt] | ++ (++ indicates an IC100 <10 μM) |  |
| − |  | antagonized Wnt3a signaling | Sclerostin protein: sclerostin protein, antagonizes Wnt3a signaling and inhibits mineralization; the assays' inhibitory stimulus and baseline | − | significant decrease in mineralization |
